Test results as given in publication PMC7509988 (2018).

Tested on: E2 aptamer (DNA, aptamer) AAGGGATGCCGTTTGGGCCCAAGTTCGGCATAGTG
Assay: graphene field-effect transistor
Details: 0.05 × PBS; pH 7.4, 5% DMSO, no interference; 4.67 nM with pH variation 6.5-8.0

KD: 4.21 nM
Compound: C[C@]12CC[C@@H]3c4ccc(O)cc4CC[C@H]3[C@@H]1CC[C@@H]2O
